This is an account of results in patent US20140301961A1, “COMPOUNDS WITH ANTI-AGING ACTIVITIES” (priority 2011, published 2014).

Structures are written as SMILES.

The test system of test [1] is steroid 5 alpha-reductase 3 (SRD5A3). In words: Affymetrix gene array on skin explants, SRD5A3. Format: cell-based, human. Particulars: topical, 24 hours. From the text: (§1) Subcutaneous fat from full thickness skin, obtained from surgical waste material from breast reduction procedures, was removed with a scalpel. Three healthy Caucasian female donors were used for this study. The female donors differed from those of the skin-treatment study outlined previously 8 mm punch biopsies were taken from the skin (and these biopsies are now referred to as skin explants). Skin explants were put on Milipore cell culture inserts (12 mm diameter). Inserts containing skin explants were put in 6-well plates (one insert/well) and 1 mL of supplemented keratinocyte medium (ex Cascade Biologics) was added to each well. A tretinoin-containing cream (Aberela® ex. Janssen): 0.05% tretinoin in the cream, was applied topically to each explant (5 μL/cm^2) using a positive displacement pipette. A placebo cream without tretinoin was used as a control. The skin explants were incubated with tretinoin for 24 hours at 37° C. in 5% CO2-humidified air.
(§2) RNA concentration was measured with ND-1000 spectrophotometer (ex. NanoDrop Technologies) and RNA quality was evaluated using the Agilent 2100 bioanalyzer system (ex. Agilent Technologies). 250 nanograms of total RNA from each skin or skin explant sample was used to prepare biotinylated fragmented cRNA according to the GeneChip® 3′IVT Express Kit Manual (PN702646 Rev 1, ex. Affymetrix Inc.). Affymetrix GeneChip® expression arrays (Human Genome U133 Plus 2.0) were hybridized for 16 hours in a 45° C. incubator, rotated at 60 rpm. According to the GeneChip Expression Wash, Stain and Scan Manual (PN 702731 Rev 2, ex. Affymetrix Inc.) the arrays were washed and stained using the Fluidics Station 450 and scanned using the GeneChip® Scanner 3000 7G.
(§3) Analysis of the gene expression data was carried out in the statistical computing language R (http://www.r-project.org) using packages available from the Bioconductor project (www.bioconductor.org). The raw data was normalized using the robust multi-array average (RMA) method. In order to search for differentially expressed genes between the X samples and the Y samples group an empirical Bayes moderated t-test was then applied using the ‘limma’ package.
(§4) Skin explants were obtained as detailed in Example 3.1.

Test [2] deals with prostaglandin-endoperoxide synthase 1 (PTGS1). In words: Affymetrix gene array on skin explants, PTGS1. Particulars: topical, 24 hours. It is filed as cell-based, human.
Description: as §1, §2, §3, §4

Test [3] has as its system GM-CSF. In words: UV-induced GM-CSF expression in skin explants. It is filed as cell-based, human. The conditions noted are these: topical 1% w/w solution in propylene glycol, 120 mJ/cm^2 UVA and UVB (FIG. 9). The procedure:
Full thickness skin from surgical waste material from breast reductions was collected. Subcutaneous fat was removed with a scalpel. 8 mm punch biopsies was taken from the skin and referred to as skin explants. Thereafter, the explants were put on Millipore cell culture inserts (12 mm in diameter). Inserts containing skin explants were put in 6-well plate (1 insert/well) and 1 mL of supplemented keratinocyte medium (Cascade Biologics) was added to each well to allow survival and nutrition of the explants. […] Supernatants were thereafter collected and analyzed for GM-CSF production.

Test [4] deals with tachykinin, precursor 1 (TAC1). The test can be described thus: Affymetrix gene array on skin explants, TAC1. Format: cell-based, human. The conditions noted are these: topical, 24 hours.
Description: as §1, §2, §3, §4

Test [5] deals with hydroxysteroid (17-beta) dehydrogenase 2 (HSD17B2). The test can be described thus: Affymetrix gene array on skin explants, HSD17B2. It is filed as cell-based, human. The conditions noted are these: topical, 24 hours.
Description: as §1, §2, §3, §4

Test [6] deals with Keratin 1/10. The test can be described thus: Keratin 1/10 production in human normal keratinocytes. Format: cell-based. The conditions noted are these: for synthesis of Keratin 1/10: human normal keratinocytes (FIG. 15). The protocol: (§5) Keratinocytes were cultured in commercially available keratinocyte medium M154 (Cascade Biologics/Invitrogen) # M154500 with a final calcium […]. Supplements were added meeting following final concentrations of growth factors; bovine pituitary extract (BPE), 0.2% v/v·bovine insulin, 5 μg/ml·hydrocortisone, 0.18 μg/ml·bovine transferrin, 5 μg/ml·human epidermal growth factor, 0.2 ng/ml.
Medium was changed every other day. Cells were grown to 80% confluence prior stimulation with compounds. Experiments were performed in 24-well plates. The cells were treated with individual compounds of the invention for 6 days. After 3 days the medium was refreshed. A source of calcium ions was used as a positive control. After 6 days tissue culture medium was stored in −20° C. until analysis.
Cells were cultured as described in Example 5.1. and the methodology described in Example 3.1 was adapted in order analyze keratin 1/10 production.

Test [7] deals with interleukin-6 [IL-6]. In words: Interleukin-6 production in PMA-stimulated dermal fibroblasts. Format: cell-based, human. Particulars: PMA 10 nM (FIG. 7). The procedure:
Human dermal fibroblast cell cultures were prepared according to Example 3.1. To induce inflammation in the cells PMA (phorbol myristate acetate) (ex. Sigma) was used at a concentration of 10 nM. […] The cells were stimulated for 24 h and the culture supernatant was collected and stored at −20° C. until further analysis
Experimental method as outlined in Example 3.1 was modified in order to analyze IL-6 levels extracted from dermal fibroblasts stimulated for 6 days with all-trans retinoic acid, retinol, arachidonic acid, β-aescin, and […] (ethyl ester) at a range of concentrations. Experiments were performed in duplicates.

Test [8] has as its system Kallikrein 8. In words: Kallikrein 8 ELISA in human normal keratinocytes. Format: cell-based. The conditions noted are these: 4 days stimulation (FIG. 14). The procedure: as §5
Keratinocytes used for Kallikrein 8 experiments were cultured as described in example 2.1. Experiments were performed in monolayers with 80% confluence. The cells were stimulated for 4 days prior to kallikrein 8 analysis with the different actives and then culture supernatant were collected and stored in −20° C. until further analysis. Kallikrein 8 production was analysed in cell culture supernatants from stimulated keratinocytes using a ELISA assay specific for Kallikrein 8 (Uscn Life Science Inc, E90690Hu). Results were compared with cell culture supernatants from DMSO vehicle treated cells. The assays utilized a 96-well microplate format and were processed according to the manufacturer's protocol, including generation of a standard curve prepared in background assay diluents. Absorbance of the assay dye was read at a Synergy HT plate reader. Values that fell within the linear range of the calibration assay were accepted. Quantities were determined by comparison to standard curves obtained for KLK8.
In general terms: ELISA stands for enzyme-linked immunosorbent assay.

In test [9] the test system is arachidonate 5-lipoxygenase (ALOX5). In words: Affymetrix gene array on skin explants, ALOX5. Format: cell-based, human. Particulars: topical, 24 hours.
Description: as §1, §2, §3, §4

Compound `O=C1C[C@@H](c2ccc(O)cc2)Oc2cc(O)cc(O)c21` [Naringenin, (S)-2,3-Dihydro-5,7-dihydroxy-2-(4-hydroxyphenyl)-4H-1-benzopyran-4-one] showed an SRD5A3 gene expression in test [1] of 1.25 log 2−ratio. In addition, in test [2], the PTGS1 gene expression is listed as −3.51 log 2−ratio. Also, the “UV-induced expression of GM-CSF” value in test [3] was “suppression of UV-induced expression of GM-CSF”. In test [4], this compound had a TAC1 gene expression of −2.78 log 2−ratio. This compound yielded an HSD17B2 gene expression in [5] of −0.83 log 2−ratio. Moreover, the “synthesis of Keratin 1/10” value in test [6] (150 microM) is given as “significant increase in the synthesis of Keratin 1/10”. In addition, the interleukin-6 production result in test [7] was “inhibit interleukin-6 production”. In test [8], the “synthesis of kallikrein 8” value was “significant increase in the synthesis of kallikrein 8”. Also, the ALOX5 gene expression in [9] is listed as −0.69 log 2−ratio.
Compound `CC(=O)N[C@@H](CC(=O)O)C(=O)O` [N-Acetyl aspartic acid, (2S)-2-Acetamidobutanedioic acid] came in with an SRD5A3 gene expression in test [1] of −1.54 log 2−ratio. For the same compound, the PTGS1 gene expression in [2] was −0.20 log 2−ratio. In [3], the “UV-induced expression of GM-CSF” value is “suppression of UV-induced expression of GM-CSF”. The same compound showed a TAC1 gene expression in [4] of −1.23 log 2−ratio. The compound also yielded an HSD17B2 gene expression in [5] of −1.46 log 2−ratio. The “production of Keratin 1/10” value in [6] (concentration not given) is given as “stimulate production of Keratin 1/10”. Besides, the interleukin-6 production entry in [7] was “inhibit interleukin-6 production”. Also, the “synthesis of kallikrein 8” value in [8] is “significant increase in the synthesis of kallikrein 8”. For the same compound, in test [9], the ALOX5 gene expression was 0.15 log 2−ratio.
For the compound `C=C1C[C@]23C[C@@]1(O)CC[C@H]2[C@@]12C=C[C@H](O)[C@@](C)(C(=O)O1)[C@@H]2[C@@H]3C(=O)O` [Gibberellic acid, (3S,3aS,4S,4aS,7S,9aR,9bR,12S)-7,12-dihydroxy-3-methyl-6-methylene-2-oxoperhydro-4a,7-methano-9b,3-propenoazuleno[1,2-b]furan-4-carboxylic acid], the SRD5A3 gene expression in test [1] was −0.75 log 2−ratio. The same compound had a PTGS1 gene expression in test [2] of −1.11 log 2−ratio. Besides, the “UV-induced expression of GM-CSF” value in [3] is “suppression of UV-induced expression of GM-CSF”. The compound further registered a TAC1 gene expression in [4] of −0.62 log 2−ratio. For the same compound, in [5], the HSD17B2 gene expression is listed as −0.52 log 2−ratio. Also, in test [6] (1.2 microM), the “synthesis of Keratin 1/10” value was “significant increase in the synthesis of Keratin 1/10”. Moreover, the interleukin-6 production result in [7] was “inhibit interleukin-6 production”. In addition, the “synthesis of kallikrein 8” value in test [8] is reported as “significant increase in the synthesis of kallikrein 8”. In [9], this compound had an ALOX5 gene expression of −1.01 log 2−ratio.
